According to ChEMBL document CHEMBL4507289, “Data for DCP probe GSM1” (2021):

Assays:
[1] = biological target: Rho-associated protein kinase 1 (Homo sapiens) (UniProt Q13464); conditions: Compound concentration 1000.0 nM
[2] = biological target: Serine/threonine-protein kinase LATS1 (Homo sapiens) (UniProt O95835); conditions: Compound concentration 1000.0 nM
[3] = test system: Tyrosine-protein kinase ABL1 (Homo sapiens), P00519 [H396P]; conditions: Compound concentration 1000.0 nM
[4] = biological target: Dual specificity protein kinase CLK1 (Homo sapiens) (UniProt P49759); conditions: Compound concentration 1000.0 nM
Chain of Dual specificity protein kinase CLK1 (Homo sapiens) (P49759 whole entry, looked up): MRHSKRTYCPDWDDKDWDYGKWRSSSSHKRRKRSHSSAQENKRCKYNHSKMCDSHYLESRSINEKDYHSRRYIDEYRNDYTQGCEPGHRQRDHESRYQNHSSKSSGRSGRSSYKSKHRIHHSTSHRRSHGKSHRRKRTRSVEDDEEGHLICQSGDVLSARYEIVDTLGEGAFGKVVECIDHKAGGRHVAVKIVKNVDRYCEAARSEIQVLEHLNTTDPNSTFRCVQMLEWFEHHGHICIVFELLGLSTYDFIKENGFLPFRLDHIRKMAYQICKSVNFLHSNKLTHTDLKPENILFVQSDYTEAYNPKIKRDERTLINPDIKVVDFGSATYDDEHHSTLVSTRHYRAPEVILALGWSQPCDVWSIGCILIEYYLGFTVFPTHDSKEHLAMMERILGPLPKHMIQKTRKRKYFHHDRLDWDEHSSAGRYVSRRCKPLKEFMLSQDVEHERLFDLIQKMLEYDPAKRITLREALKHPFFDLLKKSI

[5] = biological target: Cyclin-dependent kinase 17 (Homo sapiens) (UniProt Q00537); conditions: Compound concentration 1000.0 nM
Chain of Cyclin-dependent kinase 17 (Homo sapiens) (Q00537 whole entry, looked up): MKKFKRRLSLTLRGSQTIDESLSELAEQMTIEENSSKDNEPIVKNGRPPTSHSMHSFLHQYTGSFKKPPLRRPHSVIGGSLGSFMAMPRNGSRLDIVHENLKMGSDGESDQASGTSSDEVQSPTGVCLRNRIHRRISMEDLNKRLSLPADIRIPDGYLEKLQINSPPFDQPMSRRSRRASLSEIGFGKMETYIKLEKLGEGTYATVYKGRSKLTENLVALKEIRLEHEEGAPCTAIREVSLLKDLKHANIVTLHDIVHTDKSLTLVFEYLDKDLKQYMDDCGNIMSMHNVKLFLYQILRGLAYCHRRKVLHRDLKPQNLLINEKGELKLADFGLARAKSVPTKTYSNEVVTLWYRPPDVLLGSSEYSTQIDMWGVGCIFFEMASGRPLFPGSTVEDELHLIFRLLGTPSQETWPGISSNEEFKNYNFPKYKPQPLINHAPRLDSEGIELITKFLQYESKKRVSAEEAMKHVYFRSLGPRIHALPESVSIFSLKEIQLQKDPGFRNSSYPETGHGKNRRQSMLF

[6] = biological target: Mitogen-activated protein kinase 1 (Homo sapiens) (UniProt P28482); conditions: Compound concentration 1000.0 nM
[7] = test system: Epidermal growth factor receptor (Homo sapiens), P00533 [UNDEFINED MUTATION]; conditions: Compound concentration 1000.0 nM
Chain of Epidermal growth factor receptor (Homo sapiens), P00533 [UNDEFINED MUTATION] (P00533 whole entry, looked up, change not shown): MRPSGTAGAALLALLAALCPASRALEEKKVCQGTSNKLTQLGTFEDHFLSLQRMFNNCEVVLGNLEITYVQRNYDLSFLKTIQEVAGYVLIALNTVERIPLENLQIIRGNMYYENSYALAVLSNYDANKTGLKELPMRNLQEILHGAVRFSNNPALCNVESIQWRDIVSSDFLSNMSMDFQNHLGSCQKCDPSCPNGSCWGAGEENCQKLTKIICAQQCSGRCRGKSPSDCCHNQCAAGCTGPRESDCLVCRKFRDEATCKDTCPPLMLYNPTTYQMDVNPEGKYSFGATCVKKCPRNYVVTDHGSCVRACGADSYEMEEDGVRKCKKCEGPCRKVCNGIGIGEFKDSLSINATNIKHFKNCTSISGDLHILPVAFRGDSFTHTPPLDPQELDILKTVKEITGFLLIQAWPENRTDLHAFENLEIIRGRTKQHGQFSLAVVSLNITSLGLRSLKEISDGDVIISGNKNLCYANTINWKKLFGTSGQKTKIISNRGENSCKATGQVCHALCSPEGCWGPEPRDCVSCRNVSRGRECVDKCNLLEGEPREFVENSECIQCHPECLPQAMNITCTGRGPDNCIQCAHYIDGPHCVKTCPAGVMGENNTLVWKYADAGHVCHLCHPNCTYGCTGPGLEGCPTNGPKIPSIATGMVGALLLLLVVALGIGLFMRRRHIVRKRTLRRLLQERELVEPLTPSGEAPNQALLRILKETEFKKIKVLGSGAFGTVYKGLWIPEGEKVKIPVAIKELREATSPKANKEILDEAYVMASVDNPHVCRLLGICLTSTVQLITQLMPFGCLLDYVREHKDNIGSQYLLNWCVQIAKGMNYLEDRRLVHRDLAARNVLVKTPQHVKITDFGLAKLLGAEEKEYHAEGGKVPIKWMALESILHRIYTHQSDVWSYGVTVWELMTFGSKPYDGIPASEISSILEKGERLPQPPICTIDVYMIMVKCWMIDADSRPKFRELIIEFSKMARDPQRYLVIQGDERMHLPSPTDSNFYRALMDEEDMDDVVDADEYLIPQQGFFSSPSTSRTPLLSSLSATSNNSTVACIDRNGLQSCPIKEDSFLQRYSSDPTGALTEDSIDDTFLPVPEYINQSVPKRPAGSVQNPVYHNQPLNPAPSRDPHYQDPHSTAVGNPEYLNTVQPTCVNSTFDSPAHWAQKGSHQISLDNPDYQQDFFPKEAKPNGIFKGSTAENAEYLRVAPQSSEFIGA

[8] = biological target: Serine/threonine-protein kinase Nek7 (Homo sapiens) (UniProt Q8TDX7); conditions: Compound concentration 1000.0 nM
[9] = biological target: Sigma intracellular receptor 2 (Homo sapiens, UniProt Q5BJF2); assay: GPCRScan assay: inhibition of Sigma 2; set-up: radioligand conc. used [nm] 5.0, parental cells HEKT
Chain of Sigma intracellular receptor 2 (Q5BJF2 whole entry): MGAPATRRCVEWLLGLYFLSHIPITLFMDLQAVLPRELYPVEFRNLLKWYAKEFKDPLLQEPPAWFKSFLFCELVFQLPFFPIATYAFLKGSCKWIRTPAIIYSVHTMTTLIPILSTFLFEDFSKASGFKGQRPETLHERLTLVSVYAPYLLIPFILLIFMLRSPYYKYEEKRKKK

[10] = biological target: Homeodomain-interacting protein kinase 1 (Homo sapiens) (UniProt Q86Z02); conditions: Compound concentration 1000.0 nM
[11] = biological target: Serine/threonine-protein kinase PAK 5 (Homo sapiens) (UniProt Q9P286); conditions: Compound concentration 1000.0 nM
[12] = biological target: Serine/threonine-protein kinase Nek2 (Homo sapiens) (UniProt P51955); conditions: Compound concentration 1000.0 nM
[13] = test system: Phosphatidylinositol 4,5-bisphosphate 3-kinase catalytic subunit alpha isoform (Homo sapiens), P42336 [M1043I]; conditions: Compound concentration 1000.0 nM
[14] = biological target: Serine/threonine-protein kinase PLK3 (Homo sapiens) (UniProt Q9H4B4); conditions: Compound concentration 1000.0 nM
[15] = biological target: Phosphatidylinositol 4,5-bisphosphate 3-kinase catalytic subunit beta isoform (Homo sapiens) (UniProt P42338); conditions: Compound concentration 1000.0 nM
[16] = biological target: Serine/threonine-protein kinase 3 (Homo sapiens) (UniProt Q13188); conditions: Compound concentration 1000.0 nM
[17] = biological target: MAP kinase-interacting serine/threonine-protein kinase 2 (Homo sapiens) (UniProt Q9HBH9); conditions: Compound concentration 1000.0 nM
[18] = biological target: Cyclin-dependent kinase-like 3 (Homo sapiens) (UniProt Q8IVW4); conditions: Compound concentration 1000.0 nM
[19] = biological target: Mu-type opioid receptor (Homo sapiens) (UniProt P35372); conditions: Compound concentration 10.0 uM
[20] = biological target: Serine/threonine-protein kinase PAK 6 (Homo sapiens) (UniProt Q9NQU5); conditions: Compound concentration 1000.0 nM
Chain of Serine/threonine-protein kinase PAK 6 (Homo sapiens) (Q9NQU5 whole entry, looked up): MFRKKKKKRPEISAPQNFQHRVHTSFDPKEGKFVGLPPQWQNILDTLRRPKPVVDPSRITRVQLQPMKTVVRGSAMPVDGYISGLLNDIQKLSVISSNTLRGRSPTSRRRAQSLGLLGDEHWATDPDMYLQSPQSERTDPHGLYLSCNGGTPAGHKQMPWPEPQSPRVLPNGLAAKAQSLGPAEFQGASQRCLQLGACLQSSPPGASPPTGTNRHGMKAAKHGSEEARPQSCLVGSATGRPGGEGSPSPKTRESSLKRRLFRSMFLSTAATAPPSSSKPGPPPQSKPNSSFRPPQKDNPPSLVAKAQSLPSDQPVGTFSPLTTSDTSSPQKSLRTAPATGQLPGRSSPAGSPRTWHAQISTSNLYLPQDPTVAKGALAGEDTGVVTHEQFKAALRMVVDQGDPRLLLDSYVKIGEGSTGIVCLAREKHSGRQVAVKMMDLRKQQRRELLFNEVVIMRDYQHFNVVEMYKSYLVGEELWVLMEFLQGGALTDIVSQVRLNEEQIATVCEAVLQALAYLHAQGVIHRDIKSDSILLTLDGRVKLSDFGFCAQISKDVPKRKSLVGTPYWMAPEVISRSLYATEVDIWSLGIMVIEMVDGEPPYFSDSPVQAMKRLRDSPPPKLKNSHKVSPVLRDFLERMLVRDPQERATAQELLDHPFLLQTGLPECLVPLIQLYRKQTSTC

[21] = biological target: High affinity nerve growth factor receptor (Homo sapiens) (UniProt P04629); conditions: Compound concentration 1000.0 nM
[22] = biological target: Mitogen-activated protein kinase 3 (Homo sapiens) (UniProt P27361); conditions: Compound concentration 1000.0 nM
[23] = biological target: Cyclin-dependent kinase 3 (Homo sapiens) (UniProt Q00526); conditions: Compound concentration 1000.0 nM
[24] = biological target: Mitogen-activated protein kinase 7 (Homo sapiens) (UniProt Q13164); conditions: Compound concentration 1000.0 nM
[25] = test system: eIF-2-alpha kinase GCN2 (Homo sapiens), Q9P2K8 [S808G]; conditions: Compound concentration 1000.0 nM
[26] = biological target: Serine/threonine-protein kinase VRK2 (Homo sapiens) (UniProt Q86Y07); conditions: Compound concentration 1000.0 nM
[27] = test system: Tyrosine-protein kinase ABL1 (Homo sapiens), P00519 [F317I]; conditions: Compound concentration 1000.0 nM
[28] = biological target: Beta-adrenergic receptor kinase 1 (Homo sapiens) (UniProt P25098); conditions: Compound concentration 1000.0 nM
[29] = biological target: Macrophage colony-stimulating factor 1 receptor (Homo sapiens) (UniProt P07333); conditions: Compound concentration 1000.0 nM
[30] = test system: Phosphatidylinositol 4,5-bisphosphate 3-kinase catalytic subunit alpha isoform (Homo sapiens), P42336 [E545A]; conditions: Compound concentration 1000.0 nM
[31] = biological target: Calcium/calmodulin-dependent protein kinase type 1 (Homo sapiens) (UniProt Q14012); conditions: Compound concentration 1000.0 nM
[32] = biological target: Ribosomal protein S6 kinase alpha-3 (Homo sapiens) (UniProt P51812); conditions: Compound concentration 1000.0 nM
[33] = biological target: Alpha-2B adrenergic receptor (Homo sapiens) (UniProt P18089); conditions: Compound concentration 10.0 uM
[34] = biological target: Ribosomal protein S6 kinase alpha-2 (Homo sapiens) (UniProt Q15349); conditions: Compound concentration 1000.0 nM
[35] = biological target: Tyrosine-protein kinase Lyn (Homo sapiens) (UniProt P07948); conditions: Compound concentration 1000.0 nM
[36] = biological target: Atypical kinase COQ8A, mitochondrial (Homo sapiens) (UniProt Q8NI60); conditions: Compound concentration 1000.0 nM
[37] = biological target: Dual specificity mitogen-activated protein kinase kinase 4 (Homo sapiens) (UniProt P45985); conditions: Compound concentration 1000.0 nM
[38] = biological target: Epidermal growth factor receptor (Homo sapiens) (UniProt P00533); conditions: Compound concentration 1000.0 nM
Chain of Epidermal growth factor receptor (Homo sapiens) (P00533 whole entry): as the sequence (P00533 whole entry, looked up, change not shown) above

[39] = biological target: Inhibitor of nuclear factor kappa-B kinase subunit beta (Homo sapiens) (UniProt O14920); conditions: Compound concentration 1000.0 nM
[40] = biological target: Dual specificity protein kinase TTK (Homo sapiens) (UniProt P33981); conditions: Compound concentration 1000.0 nM
[41] = biological target: Serine/threonine-protein kinase WNK1 (Homo sapiens) (UniProt Q9H4A3); conditions: Compound concentration 1000.0 nM
[42] = biological target: Myotonin-protein kinase (Homo sapiens) (UniProt Q09013); conditions: Compound concentration 1000.0 nM
Chain of Myotonin-protein kinase (Homo sapiens) (Q09013 whole entry): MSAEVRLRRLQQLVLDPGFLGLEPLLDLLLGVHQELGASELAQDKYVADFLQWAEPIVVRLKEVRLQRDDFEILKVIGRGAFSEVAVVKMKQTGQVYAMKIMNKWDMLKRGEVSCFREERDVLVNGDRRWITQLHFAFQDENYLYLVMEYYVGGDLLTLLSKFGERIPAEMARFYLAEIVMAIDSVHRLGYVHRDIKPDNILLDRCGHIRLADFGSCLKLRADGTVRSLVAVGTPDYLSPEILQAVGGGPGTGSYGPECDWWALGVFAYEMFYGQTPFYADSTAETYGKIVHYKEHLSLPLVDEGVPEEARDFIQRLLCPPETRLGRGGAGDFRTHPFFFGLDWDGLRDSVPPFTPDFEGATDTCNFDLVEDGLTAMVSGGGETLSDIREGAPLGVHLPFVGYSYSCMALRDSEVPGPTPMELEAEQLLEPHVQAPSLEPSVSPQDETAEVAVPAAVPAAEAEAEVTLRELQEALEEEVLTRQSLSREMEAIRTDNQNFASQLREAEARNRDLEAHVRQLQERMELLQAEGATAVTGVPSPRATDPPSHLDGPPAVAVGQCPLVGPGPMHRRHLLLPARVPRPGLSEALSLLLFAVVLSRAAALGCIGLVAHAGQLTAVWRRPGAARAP

[43] = biological target: Serine/threonine-protein kinase pim-3 (Homo sapiens) (UniProt Q86V86); conditions: Compound concentration 1000.0 nM
[44] = biological target: Serine/threonine-protein kinase NLK (Homo sapiens) (UniProt Q9UBE8); conditions: Compound concentration 1000.0 nM
[45] = test system: Proto-oncogene tyrosine-protein kinase receptor Ret (Homo sapiens), P07949 [V804M]; conditions: Compound concentration 1000.0 nM

For `COc1cc(-c2cn([C@H]3CCc4c(F)cccc4N(CC(F)(F)F)C3=O)nn2)ccc1-n1cnc(C)c1`, the residual activity [1] was 100%, the residual activity [2] was 93% and the residual activity [3] was 100%. The residual activity [4] was 77%, the residual activity [5] was 84% and the residual activity [6] was 100%. The residual activity [7] was 96%, the residual activity [8] was 100% and the Ki ([9]; read-out: Ki) was 890 nM. For the same molecule, the residual activity [10] was 100%, the residual activity [11] was 93% and the residual activity [12] was 100%. For the same molecule, the residual activity [13] was 100%, the residual activity [14] was 100% and the residual activity [15] was 100%. The residual activity [16] was 100%, the residual activity [17] was 76% and the residual activity [18] was 100%. The inhibition [19] was 30.2%, the residual activity [20] was 100% and the residual activity [21] was 81%. The residual activity [22] was 100%, the residual activity [23] was 100% and the residual activity [24] was 80%. The residual activity [25] was 100%, the residual activity [26] was 100% and the residual activity [27] was 100%. It also gave a residual activity [28] of 100%, a residual activity [29] of 86% and a residual activity [30] of 100%. It also gave a residual activity [31] of 100%, a residual activity [32] of 100% and an inhibition [33] of 31.1%. For the same molecule, the residual activity [34] was 100%, the residual activity [35] was 100% and the residual activity [36] was 100%. The residual activity [37] was 93%, the residual activity [38] was 100% and the residual activity [39] was 100%. For the same molecule, the residual activity [40] was 100%, the residual activity [41] was 100% and the residual activity [42] was 99%. The residual activity [43] was 90%, the residual activity [44] was 100% and the residual activity [45] was 88%.
`COc1cc(-c2cn([C@H]3CCc4ccccc4N(CC(F)(F)F)C3=O)nn2)ccc1-n1ccc(C)n1` was tested, and the residual activity [1] was 100%, the residual activity [2] was 71% and the residual activity [3] was 70%. It also gave a residual activity [4] of 87%, a residual activity [5] of 100% and a residual activity [6] of 100%. For the same molecule, the residual activity [7] was 100%, the residual activity [8] was 100% and the Ki ([9]; read-out: Ki) was 835 nM. The Ki ([9]; read-out: pKi (converted)) was 741 nM, the residual activity [10] was 96% and the residual activity [11] was 96%. It also gave a residual activity [12] of 100%, a residual activity [13] of 100% and a residual activity [14] of 96%. For the same molecule, the residual activity [15] was 100%, the residual activity [16] was 84% and the residual activity [17] was 66%. It also gave a residual activity [18] of 88%, an inhibition [19] of 5.55% and a residual activity [20] of 100%. For the same molecule, the residual activity [21] was 63%, the residual activity [22] was 100% and the residual activity [23] was 100%. The residual activity [24] was 100%, the residual activity [25] was 100% and the residual activity [26] was 100%. For the same molecule, the residual activity [27] was 67%, the residual activity [28] was 87% and the residual activity [29] was 92%. The residual activity [30] was 71%, the residual activity [31] was 100% and the residual activity [32] was 97%. It also gave an inhibition [33] of 7.14%, a residual activity [34] of 99% and a residual activity [35] of 100%. The residual activity [36] was 100%, the residual activity [37] was 100% and the residual activity [38] was 100%. For the same molecule, the residual activity [39] was 99%, the residual activity [40] was 100% and the residual activity [41] was 100%. For the same molecule, the residual activity [42] was 96%, the residual activity [43] was 100% and the residual activity [44] was 100%. It also gave a residual activity [45] of 100%.
